Experimental findings from PubChem BioAssay (NCI) are described below.

Where “and” joins values, the source holds several entries; their conditions need not be identical. Identical values can stand only once.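 Growth conditions: 96-well plates. Treatment: test compound, 48 hours, 5 concentrations. Analysis: linear interpolation between bracketing concentrations; unreached endpoints set to highest concentration. At the GI50, growth is halved. At the TGI there is no net growth.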

Test systems include MOLT-4 leukemia; NCI-H460 lung; OVCAR-5 ovarian; CAKI-1 renal; A549 NSCLC; MALME-3M melanoma; SN12C renal; TK-10 renal; NCI-H23 lung.
Test in all cases: growth of human tumour cells (NCI), 48 h

Turning to `C[C@@]12CCC(=O)c3coc(c31)C(=O)c1cc3c(cc12)C(=O)C=CC3=O`, the GI50 in the test on MOLT-4 leukemia is more than 1000 nM; with NCI-H460 lung, more than 1 µM; with OVCAR-5 ovarian, more than 1 µM; in the test on CAKI-1 renal, more than 1000 nM; with A549 NSCLC, more than 1 µM; in the test with MALME-3M melanoma, more than 1000 nM. In addition, the GI50 in the test on SN12C renal and in the test with TK-10 renal was more than 1000 nM in each case. The TGI is more than 100 µM in the test with MOLT-4 leukemia; more than 70.9 µM in the test on NCI-H460 lung; > 1 µM and 36 µM in the test on OVCAR-5 ovarian; > 1 µM and 38.4 µM in the test with CAKI-1 renal; more than 100 µM in the test on A549 NSCLC; > 1 µM and 31.3 µM in the test on MALME-3M melanoma. Moreover, the TGI was > 1 µM and 30.7 µM with SN12C renal; more than 61 µM in the test with TK-10 renal; 26.2 µM with NCI-H23 lung.
On to `CSc1nnc(CCC(=O)Nc2c(C)cccc2C)o1`, for which the TGI in the test with MOLT-4 leukemia, in the test on NCI-H460 lung, in the test with OVCAR-5 ovarian, with CAKI-1 renal, in the test with A549 NSCLC and in the test on MALME-3M melanoma was more than 100 µM in each case. Further, the TGI with SN12C renal, with TK-10 renal and in the test on NCI-H23 lung was more than 100 µM in each case.
Take `O=C1C=CC(=O)C2=C1[C@@H](O)C1CC=CC3C(=O)O[C@@H]2C31` (some centres undefined): the TGI with MOLT-4 leukemia is 56.5 µM; in the test with NCI-H460 lung, more than 100 µM; in the test on OVCAR-5 ovarian, more than 100 µM; with CAKI-1 renal, 35.2 µM; in the test with A549 NSCLC, more than 100 µM; in the test on MALME-3M melanoma, 34.6 µM. Besides, the TGI with SN12C renal was 37.2 µM; with TK-10 renal, more than 58.1 µM; in the test on NCI-H23 lung it was more than 68 µM.
As to `CCOC(=O)CC[C@H](NC(=O)c1nc[nH]c1[N+](=O)[O-])C(=O)OCC`, the TGI in the test with MOLT-4 leukemia, in the test on NCI-H460 lung, with A549 NSCLC, in the test with MALME-3M melanoma, in the test with SN12C renal and in the test on TK-10 renal was more than 100 µM each time. Further, in the test with NCI-H23 lung, the TGI was more than 100 µM.
In the case of `CCOC(=O)/C(C1=NCCN1)=C(\O)c1ccccc1`, the TGI with MOLT-4 leukemia, in the test with NCI-H460 lung, in the test with OVCAR-5 ovarian, with CAKI-1 renal, in the test on A549 NSCLC and in the test with MALME-3M melanoma was more than 100 µM throughout. For the same molecule, the TGI in the test with SN12C renal and in the test on NCI-H23 lung was more than 100 µM throughout.
Turning to `O=C1CCCCC1S(=O)(=O)c1ccccc1` (centres undefined), the TGI in the test on MOLT-4 leukemia, with NCI-H460 lung, in the test with OVCAR-5 ovarian, with CAKI-1 renal, with A549 NSCLC and with MALME-3M melanoma was more than 100 µM throughout. Further, the TGI with SN12C renal, with TK-10 renal and with NCI-H23 lung was more than 100 µM each time.
As for `CCCCCCCCCCCCCCCC(=O)OCC1OC(n2cc(F)c(=O)[nH]c2=O)C(N)C(O)C1O` (centres undefined), the TGI in the test with MOLT-4 leukemia is 40.7 µM; with OVCAR-5 ovarian, 58.8 µM; in the test with CAKI-1 renal it was 37.5 µM; in the test with A549 NSCLC, 33.1 µM; in the test on MALME-3M melanoma, 38.2 µM; in the test with SN12C renal, 32.4 µM. The TGI in the test with TK-10 renal is 46.5 µM; with NCI-H23 lung, 39.3 µM.
With `Cc1cn(C2CC3C(COCN3O)O2)c(=O)[nH]c1=O` (centres undefined), the TGI in the test on MOLT-4 leukemia, in the test on NCI-H460 lung, with OVCAR-5 ovarian, with A549 NSCLC, in the test on SN12C renal and in the test on TK-10 renal was more than 100 µM each time. The molecule also showed a TGI in the test on NCI-H23 lung of more than 100 µM.
Turning to `Cc1ccccc1C1OC(=O)c2ccc3ccccc3c21` (centres undefined), the TGI is 7.18 µM with MOLT-4 leukemia; 12.6 µM in the test with NCI-H460 lung; more than 31.6 µM in the test on OVCAR-5 ovarian; 88.4 µM with CAKI-1 renal; 16.6 µM in the test with A549 NSCLC; 14 µM in the test with MALME-3M melanoma. The TGI is 18.3 µM in the test on SN12C renal, more than 31.6 µM with TK-10 renal and 20.7 µM with NCI-H23 lung.
With `CC[C@@]1(O)C(=O)OCc2c1cc1n(c2=O)Cc2cc3cc4c(cc3nc2-1)OCO4`, the TGI in the test on MOLT-4 leukemia is 0.00137 µM; in the test on NCI-H460 lung, 0.0876 µM and 0.0232 µM; in the test with OVCAR-5 ovarian, 0.122 µM and 0.0372 µM; in the test with A549 NSCLC it was 0.177 µM and 0.136 µM; with SN12C renal, less than 0.0125 µM; in the test with TK-10 renal, 2.79 µM and 17.3 µM. Also, the GI50 with MALME-3M melanoma is less than 14.4 nM; in the test on TK-10 renal it was 111 nM.
With `c1cncc(C2N3CCCCC3[C@@H]3c4[nH]c5ccccc5c4CCN23)c1` (some centres undefined), the TGI in the test with MOLT-4 leukemia, with NCI-H460 lung, with OVCAR-5 ovarian, with CAKI-1 renal, in the test on A549 NSCLC and in the test on SN12C renal was more than 100 µM each time. For the same molecule, the TGI with TK-10 renal and in the test with NCI-H23 lung was more than 100 µM each time.
In the case of `OC1(C23CC4CC(CC(C4)C2)C3)CSCC1(O)C12CC3CC(CC(C3)C1)C2` (centres undefined), the TGI in the test with MOLT-4 leukemia was more than 10 µM; in the test with CAKI-1 renal it was more than 100 µM; with A549 NSCLC it was more than 100 µM; in the test on MALME-3M melanoma, more than 100 µM; in the test with SN12C renal, more than 100 µM; in the test with TK-10 renal it was more than 100 µM. The molecule further came in with a TGI in the test with NCI-H23 lung of more than 100 µM.
As to `CCCCCCC[CH2][Sn]([CH2]CCCCCCC)([O]c1cccc2cccnc12)[O]c1cccc2cccnc12`, the GI50 in the test with MOLT-4 leukemia is 595 nM; in the test on NCI-H460 lung it was 3.12 µM; with OVCAR-5 ovarian, 3.02 µM; with CAKI-1 renal it was 2540 nM; in the test on A549 NSCLC, 3.18 µM; in the test on MALME-3M melanoma it was 1440 nM. Moreover, the GI50 is 1960 nM with SN12C renal and 3850 nM in the test with TK-10 renal. Also, the TGI with MOLT-4 leukemia was determined as 3.81 µM; with NCI-H460 lung it was 10.7 µM; with OVCAR-5 ovarian, 8.21 µM; in the test with CAKI-1 renal it was 8.41 µM; in the test with A549 NSCLC, 12 µM; with MALME-3M melanoma, 2.9 µM. Moreover, the values for the TGI with SN12C renal and in the test with TK-10 renal were 4.32 µM and 13.7 µM, respectively.
As for `COc1ccc2c(c1)C(=O)c1ccc(OC)cc1C2=S`, the TGI with MOLT-4 leukemia, in the test on OVCAR-5 ovarian, with A549 NSCLC, with MALME-3M melanoma, with SN12C renal and with TK-10 renal was more than 100 µM each time. The molecule also displayed a TGI with NCI-H23 lung of more than 100 µM.
